Experimental data taken from PMC6271975, “Structure-Activity Relationship Study of Sesquiterpene Lactones and Their Semi-Synthetic Amino Derivatives as Potential Antitrypanosomal Products” (Molecules, 2014).
Several values for one entry are separate records, joined by “and”; a condition that tells them apart may be missing. Equal values may be shown once. Read-outs that look alike come from different tables or passages of the source.

Tests used:
[1] = system: T. b. rhodesiense STIB 900 bloodstream forms; assay: In vitro antitrypanosomal Alamar Blue assay; assay type: cell-based, Trypanosoma brucei rhodesiense; details: for SI (Selectivity Index): IC50 against L6 cells divided by IC50 against STIB 900 strain; for IC50: read-out: T. brucei STIB 900 IC50
Method: Evaluation of in vitro antiprotozoal activity against T. b. rhodesiense was done using the Alamar Blue assay to determine IC50s as previously described. Serial threefold dilution were prepared in 96-well micro titre plates, and 4000 T. b. rhodesiense STIB 900 bloodstream forms in 50 μL were added to each well except for the negative controls. Melarsoprol (Arsobal®, purity > 95%, Sanofi-Aventis, Meyrin, Switzerland) was used as reference drugs. […] The IC50 values were calculated from the sigmoidal growth inhibition curves using Softmax Pro software (Molecular Devices).

[2] = system: rat skeletal myoblasts (L6-cells); assay: cells; assay type: cell-based; details: for IC50: read-out: L6 cells IC50
Method: The cytotoxicity assay was performed with rat skeletal myoblasts (L6-cells) seeded in 100 μL RPMI 1640 in 96-well micro titre plates, using the Alamar Blue assay described above. After 24 h the medium was removed and replaced by 100 μL of fresh RPMI 1640 with serial threefold drug dilution. Podophyllotoxin (purity > 95%, Sigma-Aldrich) was used as a reference drug. After 70 h of incubation under a humidified 5% CO2 atmosphere, 10 μL of the Alamar blue marker (see above) was added to all wells. The plates were incubated for an additional 2 h. A Spectramax Gemini XS micro plate fluorescence reader (Molecular Devices) was used to read the plates using an excitation wavelength of 536 nm and an emission wavelength of 588 nm. The IC50s were calculated from the sigmoidal growth inhibition curves using Softmax Pro software (Molecular Devices).

[3] = system: rat skeletal myoblasts (L6-cells); design: method as in PMID 22331812, PMID 24080104, PMID 21624443, PMID 22396915; details: cytotoxicity; previously reported compounds included for comparison; cited from earlier work
[4] = system: T. b. rhodesiense STIB 900 bloodstream forms; design: method as in PMID 22331812, PMID 24080104, PMID 21624443, PMID 22396915; details: cited from earlier work; for SI (Selectivity Index): IC50 against L6 cells divided by IC50 against STIB 900 strain, previously reported compounds; for IC50: previously reported compounds included for comparison, compound 9 tested once, read-out: T. brucei STIB 900 IC50
[5] = Trypanosoma brucei, 70 h incubation, average of three independent assays
[6] = Rattus norvegicus, L6, cytotoxicity, 70 h incubation, average of three independent assays
[7] = Trypanosoma brucei, 70 h, 70 h incubation, average of three independent assays
[8] = Rattus norvegicus, L6, 70 h, cytotoxicity, 70 h incubation, average of three independent assays
[9] = 70 h incubation, average of three independent assays

| SMILES | SI (Selectivity Index) [1] | IC50 [1, 7] | IC50 [2, 8] | other results |
| --- | --- | --- | --- | --- |
| C=C1CC(O)C2C(=C)C(=O)OC2C2C(=C)C(O)CC12 (centres unmarked) [Compound 5, Deacylcynaropicrin] | – | – | – | fold lower antitrypanosomal activity as compared to 1 ([1]; compared to compound 1): 16 fold; fold lower cytotoxicity as compared to 1 ([2]; compared to compound 1): nine; IC50 [3]: 19 µM and 19.2 µM; SI (Selectivity Index) [4]: 3.9; IC50 [4]: 4.9 ± 0.34 µM |
| C=C1C(=O)O[C@@H]2/C=C(\C)CC/C=C(\C)C[C@@H](OC(=O)/C(=C/CO)CO)[C@@H]12 [Compound 13, Eupatoriopicrin] | – | – | – | IC50 [3]: 1.6 ± 0.1 µM; SI (Selectivity Index) [4]: 1.3; IC50 [4]: 1.2 ± 0.2 µM |
| CC1C(=O)OC2C1CCC1(C)C=CC(=O)C(C)C21 (centres unmarked) [Compound 18] | 2.6 | – | – | IC50 [1, 5]: 12.9 ± 2.4 µM; IC50 [2, 6]: 34 ± 1.5 µM |
| Nc1nc(N)nc(Nc2ccc([As]3SCC(CO)S3)cc2)n1 (centres unmarked) [Melarsoprol, reference compound] | 2170 | – | – | IC50 ([1]; Trypanosoma brucei, 70 h): 0.01 ± 0.01 µM; IC50 ([2]; Rattus norvegicus, L6, 70 h): 21.7 ± 8.7 µM |
| CC1C(=O)CCC2(C)CCC3C(CNCCc4ccc(O)cc4)C(=O)OC3C12 (centres unmarked) [Compound 27, Tyramine adduct] | 4 | 13 ± 1.4 µM | 45.6 ± 3.2 µM | – |
| CC(=O)OC1(C)CCC2C(CNCCc3ccc(O)cc3)C(=O)OC2C2=C(C)C(=O)CC21 (centres unmarked) [Compound 29, Tyramine adduct] | 3.3 | 6.6 ± 0.7 µM | 22.1 ± 4 µM | – |
| CC1C(=O)CCC2(C)CCC3C(CN4CCOCC4)C(=O)OC3C12 (centres unmarked) [Compound 23, Morpholine adduct] | 5.6 | 11.8 ± 2.7 µM | 65.6 ± 9.7 µM | – |
| C=C1C(=O)OC2C1CCC(=C)C1CC(OC(C)=O)C(=C)C12 (centres unmarked) [Compound 9, Zaluzanin D] | – | – | – | IC50 [3]: 15.6 µM; SI (Selectivity Index) [4]: 1.4; IC50 [4]: 10.8 µM |
| C=C1C(=O)O[C@@H]2[C@H]1CC[C@H](C)[C@]1(CCC(=O)O1)[C@@]2(C)O [Compound 11, Psilostachyin A] | 1.2 | 5.8 ± 0.7 µM | 6.9 ± 1.8 µM | – |
| C=C[C@@]12COC(=O)C(=C)[C@@H]1[C@H]1OC(=O)C(=C)[C@@H]1[C@@H](OC(=O)C(=C)CO)C2 [Compound 4, Vernodalin] | 3 | 0.2 ± 0.01 µM | 0.6 ± 0.02 µM | – |
| CC1=C2[C@H]3OC(=O)[C@@H](C)[C@@H]3CC[C@@]2(C)C=CC1=O [Compound 17, Santonin] | >8.8 | – | – | IC50 [1, 5]: 41.5 ± 0.8 µM; IC50 [2, 6]: > 366 µM |
| CC(=O)OC1(C)CCC2C(C)C(=O)OC2C2=C(C)C(=O)CC21 (centres unmarked) [Compound 16] | >6.4 | 46 µM | > 292 µM | IC50 [1, 9]: 45.7 ± 5 µM |
| C=C(CO)C(=O)O[C@H]1C/C(C)=C\CC/C(CO)=C\[C@H]2OC(=O)C(=C)[C@H]12 [Compound 2, Onopordopicrin] | – | – | – | IC50 [3]: 3.1 ± 1.1 µM; SI (Selectivity Index) [4]: 8.2; IC50 [4]: 0.4 ± 0.01 µM |
| CC1=C2C3OC(=O)C(CNCc4ccc(Cl)cc4)C3CCC2(C)C=CC1=O (centres unmarked) [Compound 32, 4-Chlorobenzylamine adduct] | 3.4 | 10.6 ± 1.5 µM | 34.8 ± 1.2 µM | – |
| CC12CCC3C(CNCCc4ccc(Cl)cc4)C(=O)OC3C13C=CC(=O)C23C (centres unmarked) [Compound 33, 2-(4-Chlorophenyl)ethylamine adduct] | 2.7 | 10.2 ± 3.2 µM | 27.6 ± 6.7 µM | – |
| CC1=C2C3OC(=O)C(C)C3CCC(C)(O)C2CC1O (centres unmarked) [Compound 15, 3-Hydroxyisophotosantonin] | 6.4 | 54.7 ± 8 µM | 353 ± 4 µM | – |
| C=C1C(=O)O[C@@H]2/C=C(/C)[C@@H](O)C/C=C(\C)C[C@H](OC(=O)/C(C)=C\C)[C@@H]12 [Compound 14, Nobilin] | – | – | – | IC50 ([2]; Rattus norvegicus, L6, 70 h): 10.5 ± 0.1 µM |

| SMILES | SI (Selectivity Index) [1] | IC50 [1, 7] | IC50 [2, 8] | other results |
| --- | --- | --- | --- | --- |
| COc1cc([C@@H]2c3cc4c(cc3[C@H](O)[C@H]3COC(=O)[C@H]23)OCO4)cc(OC)c1OC [Podophyllotoxin, reference compound] | – | – | – | IC50 ([2]; Rattus norvegicus, L6, 70 h): 0.02 ± 0.01 µM |
| C=C1C(=O)O[C@@H]2/C=C(\CO)CC/C=C(\C)C[C@H](OC(=O)C(=C)[C@H](O)CO)[C@@H]12 [Compound 3, Cnicin] | 10 | 0.4 ± 0.1 µM | 4.2 ± 0.9 µM | – |
| CC12CCC3C(CN4CCOCC4)C(=O)OC3C13C=CC(=O)C23C (centres unmarked) [Compound 25, Morpholine adduct] | 3.8 | 2.6 ± 0.5 µM | 9.9 ± 1.6 µM | – |
| CCN(CC)CC1C(=O)OC2C3=C(C)C(=O)CC3C(C)(O)CCC12 (centres unmarked) [Compound 21, Deacylated diethylamine adduct] | 2.2 | 4.2 ± 0.8 µM | 9.4 ± 2.2 µM | – |
| CC1=C2C3OC(=O)C(CNCCc4ccc(O)cc4)C3CCC2(C)C=CC1=O (centres unmarked) [Compound 28, Tyramine adduct] | 6.5 | 13.4 ± 1.1 µM | 87.9 ± 2.2 µM | – |
| CC(=O)OC1(C)CCC2C(CNCCc3ccc(Cl)cc3)C(=O)OC2C2=C(C)C(=O)CC21 (centres unmarked) [Compound 34, 2-(4-Chlorophenyl)ethylamine adduct] | 4.2 | 5.4 ± 1.1 µM | 22.5 ± 1.6 µM | – |
| CC1=C2C3OC(=O)C(CN4CCN(c5ccccc5Cl)CC4)C3CCC2(C)C=CC1=O (centres unmarked) [Compound 31, 1-(2-Chlorophenyl)piperazine adduct] | 3.1 | > 5 µM | > 20 µM | IC50 [1, 9]: 7 ± 2.2 µM; IC50 ([2]; cytotoxicity, 70 h incubation, average of three independent assays): 21.8 ± 2.7 µM |
| C=C1C(=O)O[C@@H]2/C=C(\C)CC/C=C(\C)CC[C@@H]12 [Compound 7, costunolide] | – | – | – | IC50 [3]: 7.7 ± 1.3 µM; SI (Selectivity Index) [4]: 5.9; IC50 [4]: 1.3 ± 0.4 µM |
| C=C1C(=O)O[C@H]2[C@H]1CC/C(C)=C/CC[C@@]1(C)O[C@@H]21 [Compound 8, parthenolide] | – | – | – | IC50 [3]: 5.2 ± 0.9 µM; SI (Selectivity Index) [4]: 6.5; IC50 [4]: 0.8 ± 0.5 µM |
| C=C1CC(O)C2C(CN(C)C)C(=O)OC2C2C(=C)C(O)CC12 (centres unmarked) [Compound 20, Deacylcynaropicrin dimethylamine adduct] | 2.5 | 3.6 ± 1 µM | 8.6 ± 1.3 µM | – |
| C=C1CC[C@H]2C(=C)CC[C@H]3C(=C)C(=O)O[C@@H]3[C@@H]12 [Compound 6, dehydrocostuslactone] | – | – | – | IC50 [3]: 8.3 ± 1.9 µM; SI (Selectivity Index) [4]: 1.9; IC50 [4]: 4.4 ± 1.2 µM |
| CC12CCC3C(CNCCc4ccc(O)cc4)C(=O)OC3C13C=CC(=O)C23C (centres unmarked) [Compound 30, Tyramine adduct] | 3.2 | 9.9 ± 1.6 µM | 31.8 ± 1.3 µM | – |
| CC(=O)OC1(C)CCC2C(CN3CCOCC3)C(=O)OC2C2=C(C)C(=O)CC21 (centres unmarked) [Compound 22, Morpholine adduct] | 10.3 | 0.7 ± 0.1 µM | 7.4 ± 0.8 µM | – |
| CC1C(=O)C=CC2(C)CCC3C(CN4CCOCC4)C(=O)OC3C12 (centres unmarked) [Compound 24, Morpholine adduct] | 13.3 | 2.4 ± 0.7 µM | 31.3 ± 1.4 µM | – |
| C=C1C(=O)OC2C3=C(C)C(=O)CC3C(C)(OC(C)=O)CCC12 (centres unmarked) [Compound 10] | 7.6 | 0.7 µM | 4.3 ± 0.5 µM | IC50 [1, 9]: 0.6 ± 0.2 µM |
| CC1C(=O)C=CC2(C)CCC3C(CNCCc4ccc(O)cc4)C(=O)OC3C12 (centres unmarked) [Compound 26, Tyramine adduct] | >35.0 | 6.7 ± 1.3 µM | > 236 µM | – |
